Source: patent publication US10688111B2, “Liquid formulations of compounds active at sulfonylurea receptors” (Biogen Chesapeake LLC, priority 2008, dated 2020)
In brackets after ≈: the same amount, converted by molar mass.

What was measured:
Format in all cases: physicochemical
[1] = Glibenclamide solubility at various pH in PEG 300/ethanol/meglumine buffer (Table 2, FIG. 1); conditions: for solubility: aqueous with cosolvent or surfactant or cyclodextrin
Method: The solubility of glibenclamide was measured at various pH levels in the presence of different amounts of the buffer meglumine in solutions containing 40% PEG 300, 10% ethanol, and 50% water. […] The pH of the meglumine buffer was adjusted down from pH 11 to the target pH range of between about pH 8 to about pH 10.

[2] = Precipitation on dilution of concentrated glibenclamide solutions
Method: This formulation may also include a buffer, such as meglumine or diethanolamine. This formulation may also include a surfactant; for example, this solution may include Tween 80 (e.g., less than about 1 ug/ml or less than about 1 ug/mg of glibenclamide). This formulation can be stored in a refrigerator (e.g., at about 2-8° C.) or can be stored at room temperature. This formulation is suitable for dilution; for example, it may be diluted 1:1, or 1:2 for use in bolus injections. This formulation may also be diluted by larger amounts of diluent, to 1:50 for example, for administration of glibenclamide as an infusion over an extended period of time. Dilution with a buffered solution allows the reduction of the solution pH to physiological levels without causing precipitation of glibenclamide. […] Experiments investigating the effect of dilution of relatively high concentrations of SUR-active compounds were performed. […] These solutions were diluted as follows with each of these diluents (0.9% NaCl and 5% glucose solutions): 1 in 2; 1 in 4; 1 in 5; 1 in 10; 1 in 20; and 1 in 50.

[3] = Glibenclamide solubility in infusion fluids by HPLC, excess drug shaken 24 hours (Table 4); conditions: thermodynamic from solid, 24 hours ambient
Method: The solubility of glibenclamide was determined by high pressure liquid chromatography (HPLC) in a variety of infusion fluids. Excess glibenclamide was shaken with the vehicle for 24 hours at ambient temperature and the glibenclamide content of the supernatant determined by HPLC.
The following infusion vehicles were assessed in these experiments:
1.) 0.9% NaCl at the lowest end of the pH specification (pH 4.5) containing a 50-fold dilution of the PEG/ethanol/meglumine 10 mM pH 9.0 formulation.
2.) 0.9% NaCl at the lowest end of the pH specification (pH 4.5) containing a 50-fold dilution of the PEG/ethanol/diethanolamine 10 mM pH 9.0 formulation.
3.) 0.9% NaCl at the lowest end of the pH specification (pH 4.5) containing a 50-fold dilution of the PEG/ethanol/TRIS 10 mM pH 9.0 formulation.
4.) 0.9% NaCl at the lowest end of the pH specification (pH 4.5).
5.) 0.9% NaCl at the highest end of the pH specification (pH 7.0).
6.) 0.9% NaCl ‘as is’ (pH 5.8).
7.) 0.9% NaCl at the lowest end of the pH specification (pH 4.5) containing a 50-fold dilution of the PEG/ethanol formulation (without buffer or pH adjustment).
8.) 0.9% NaCl at the highest end of the pH specification (pH 7.0) containing a 50-fold dilution of the PEG/ethanol formulation (without buffer or pH adjustment).

[4] = pH after 50-fold dilution of glibenclamide 1 mg/ml concentrate into Hartmann's or NaCl; conditions: 1 mg/ml in PEG/Ethanol/Buffer (4/1/5)
Method: This was found even for experiments in which the concentration of buffer was reduced to 5 mM. In order to determine the final pH of diluted solutions resulting from high pH solutions having high concentrations of SUR-active compounds, measurements of the pH of glibenclamide solutions at various levels of dilution were made. […]

solubility change with pH (FIG. 1) ([1]; 40% PEG 300, 10% ethanol, 50% water, meglumine buffer, basic pH values greater than about pH 8): greatly increased
solubility ([1]; PEG 300/ethanol/meglumine buffer solution, PEG 300/Ethanol/20 mM Meglumine 40%/10%/50% (final 10 mM), nominal pH 8.5, actual pH 5.4): 100 µg/mL (≈ 202 µM)
solubility ([1]; PEG 300/ethanol/meglumine buffer solution, PEG 300/Ethanol/20 mM Meglumine 40%/10%/50% (final 10 mM), nominal pH 9.0, actual pH 5.6): 130 µg/mL (≈ 263 µM)
solubility ([1]; PEG 300/ethanol/meglumine buffer solution, PEG 300/Ethanol/20 mM Meglumine 40%/10%/50% (final 10 mM), nominal pH 9.5, actual pH 6.4): 120 µg/mL (≈ 243 µM)
solubility ([1]; PEG 300/ethanol/meglumine buffer solution, PEG 300/Ethanol/100 mM Meglumine 40%/10%/50% (final 50 mM), nominal pH 9.5, actual pH 7.7): 410 µg/mL (≈ 830 µM)
solubility ([1]; PEG 300/ethanol/meglumine buffer solution, PEG 300/Ethanol/100 mM Meglumine 40%/10%/50% (final 50 mM), nominal pH 10.0, actual pH 8.8): 2740 µg/mL (≈ 5550 µM)
solubility ([1]; 40% PEG 300, 10% ethanol, 50% water with meglumine buffer, nominal pH 9 (pH 8.8)): 2700 µg/mL (≈ 5470 µM)
solubility ([1]; PEG 300/Ethanol/20 mM Meglumine 40%/10%/50% (final 10 mM), nominal pH 10.0, actual pH 6.9): 980 µg/mL (≈ 1980 µM)
solubility ([1]; PEG 300/Ethanol/50 mM Meglumine 40%/10%/50% (final 25 mM), nominal pH 8.0, actual pH 5.2): 160 µg/mL (≈ 324 µM)
solubility ([1]; PEG 300/Ethanol/50 mM Meglumine 40%/10%/50% (final 25 mM), nominal pH 9.5, actual pH 6.6): 90 µg/mL (≈ 182 µM)
solubility ([1]; PEG 300/Ethanol/50 mM Meglumine 40%/10%/50% (final 25 mM), nominal pH 10.0, actual pH 7.8): 360 µg/mL (≈ 729 µM)
solubility ([1]; PEG 300/Ethanol/100 mM Meglumine 40%/10%/50% (final 50 mM), nominal pH 8.0, actual pH 5.3): 90 µg/mL (≈ 182 µM)
solubility ([1]; PEG 300/Ethanol/100 mM Meglumine 40%/10%/50% (final 50 mM), nominal pH 8.5, actual pH 5.5): 100 µg/mL (≈ 202 µM)
solubility ([1]; PEG 300/Ethanol/100 mM Meglumine 40%/10%/50% (final 50 mM), nominal pH 9.0, actual pH 6.2): 100 µg/mL (≈ 202 µM)
precipitation on dilution ([2]; 2 mg/ml in 100 mM meglumine buffer with 0.9% NaCl or 5% glucose, diluted 1 in 2, 4, 5, 10, 20 and 50 with these diluents): no precipitation
behaviour of drug during and following dilution ([2]; Example 1 formulation (40% PEG 300, 10% Ethanol, 50% water, about pH 9, 1 mg/ml) diluted 1:50 with Hartman's solution): remained in solution
solubility at 24 h ([3]; 0.9% NaCl infusion fluid, pH 7.8, saline or isotonic, 0.9% NaCl 'as is' (pH 5.8), actual pH 7.80): 150 µg/mL (≈ 304 µM)
solubility at 24 h ([3]; 0.9% NaCl infusion fluid, saline or isotonic, 0.9% NaCl at pH 4.5, actual pH 7.72): 80 µg/mL (≈ 162 µM)
solubility at 24 h ([3]; 0.9% NaCl infusion fluid, saline or isotonic, 0.9% NaCl at pH 7.0, actual pH 7.75): 120 µg/mL (≈ 243 µM)
solubility at 24 h ([3]; pH 7.9, saline or isotonic, NaCl at pH 7.0 + PEG/EtOH, no buffer (50-fold dilution), actual pH 7.90): 140 µg/mL
solubility at 24 h ([3]; saline or isotonic, NaCl at pH 4.5 + PEG/EtOH, no buffer (50-fold dilution), actual pH 7.64): 100 µg/mL
solubility at 24 h ([3]; saline or isotonic, NaCl at pH 4.5 + PEG/EtOH/Diethanolamine 10 mM, pH 9.0 (50-fold dilution), actual pH 8.19): 130 µg/mL
solubility at 24 h ([3]; saline or isotonic, NaCl at pH 4.5 + PEG/EtOH/Meglumine 10 mM, pH 9.0 (50-fold dilution), actual pH 7.92): 150 µg/mL
solubility at 24 h ([3]; saline or isotonic, NaCl at pH 4.5 + PEG/EtOH/TRIS 10 mM, pH 9.0 (50-fold dilution), actual pH 7.89): 150 µg/mL
pH after a 50-fold Dilution ([4]; Diethanolamine 5 mM pH 8, into Hartmann's pH 6.48 (Expt1)): 6.71
pH after a 50-fold Dilution ([4]; Diethanolamine 5 mM pH 8, into Hartmann's pH 6.60): 7.99
pH after a 50-fold Dilution ([4]; Diethanolamine 5 mM pH 8, into NaCl pH 4.59): 7.27
pH after a 50-fold Dilution ([4]; Diethanolamine 5 mM pH 8, into NaCl pH 6.82): 8.32
pH after a 50-fold Dilution ([4]; Diethanolamine 5 mM pH 8.5, into Hartmann's pH 6.48, Expt 2): 6.82
pH after a 50-fold Dilution ([4]; Diethanolamine 5 mM pH 9, into Hartmann's pH 6.48 (Expt1)): 7.54
pH after a 50-fold Dilution ([4]; Diethanolamine 5 mM pH 9, into Hartmann's pH 6.48, Expt 2): 7.29
pH after a 50-fold Dilution ([4]; Diethanolamine 5 mM pH 9, into NaCl pH 6.82): 8.65
pH after a 50-fold Dilution ([4]; Diethanolamine 5 mM pH 9.5, into Hartmann's pH 6.48 (Expt1)): 6.73
pH after a 50-fold Dilution ([4]; Diethanolamine 5 mM pH 9.5, into Hartmann's pH 6.48, Expt 2): 8.37
pH after a 50-fold Dilution ([4]; Diethanolamine 5 mM pH 9.5, into Hartmann's pH 6.60): 8.85
pH after a 50-fold Dilution ([4]; Diethanolamine 5 mM pH 9.5, into NaCl pH 4.59): 8.72
pH after a 50-fold Dilution ([4]; Diethanolamine 5 mM pH 9.5, into NaCl pH 6.82): 8.88
pH after a 50-fold Dilution ([4]; Diethanolamine 5 mM pH 10, into Hartmann's pH 6.48): 8.46
pH after a 50-fold Dilution ([4]; Diethanolamine 10 mM pH 9, into Hartmann's pH 6.48): 8.38
pH after a 50-fold Dilution ([4]; Diethanolamine 10 mM pH 9, into NaCl pH 4.59): 8.46
SMILES: COc1ccc(Cl)cc1C(=O)NCCc1ccc(S(=O)(=O)NC(=O)NC2CCCCC2)cc1 [Glibenclamide, N-p-(2-[5-Chloro-2-methoxybenzamido]ethyl) benzenesulfonyl-N′-cyclohexylurea]
